Literature values, collected in patent US7304085B2, “Nitrogen-containing heteroaryl derivatives” (Genelabs Technologies, Inc., priority 2003, dated 2007).

What was measured:
HCV = settings: treatment of HCV, long term efficacy

Row | Compound | patients with significant hemolysis (currently recommended doses) | teratogenicity / embryotoxicity (in vivo) | response rate (HCV)
1 | NC(=O)c1ncn([C@@H]2O[C@H](CO)[C@@H](O)[C@H]2O)n1 [Ribavirin, 1-β-D-ribofuranosyl-1H-1,2,4-triazole-3-carboxamide] | 10-20% | teratogenic and embryotoxic | –
2 | interferon | – | – | about 25%
